Entries after “also recorded” stand apart in the source; their conditions may differ. Bridge positions count the residues as written; N and C are the ends. Square brackets hold non-standard residues; d marks the D form. Ends that are not written are not given here. R8 = C=CCCCCCC[C@@](C)(N)C(=O)O; S5 = C=CCCC[C@](C)(N)C(=O)O

One assay has as its target T1, wtEGFR (Homo sapiens, UniProt P00533).
T1 construct: expressed in transfected cells; host or cells: CHO-K1 (transient transfection; lysate used)
Put plainly: Sequestration of EGFR from CHO-K1 lysates by biotinylated peptides on streptavidin beads. Type of assay: binding. The settings on record: 25 μM biotinylated peptide, 1 hour. The method, then: CHO-K1 lysates were treated with 25 μM of each biotinylated peptide shown for 1 hour, then incubated with streptavidin-coated beads overnight. Sequestered proteins were eluted, electrophoresed, and immunoblotted to detect EGFR. Band intensities were measured using ImageJ (Schneider et al., 2012, Nat. Meth., 9: 671).
Two additional experiments were performed to evaluate whether the E1^S-induced viability changes and decreases in EGFR and Erk/Akt phosphorylation resulted from a direct interaction with the EGFR JM segment. […] Each biotinylated analog (25 μM) was incubated for 1 hour with lysates from wtEGFR-expressing cells, and then incubated with Mag-Sepharose Streptavidin Beads overnight. A mock reaction lacking a biotinylated analog was run alongside. After washing, the sequestered proteins were eluted, resolved by SDS-PAGE (10%), probed with a commercial anti-EGFR antibody, visualized using a horseradish peroxidase-tagged mouse anti-rabbit secondary antibody, and quantified with chemiluminescent detection. […] Little or no EGFR was sequestered when no biotinylated peptide was added (mock), providing additional support for a direct interaction between the hydrocarbon-stapled peptide E1^S and the juxtamembrane segment of wild type EGFR.

The subject of assay [1] is A431, H2030, H3255, H1975 and SK-N-MC cells. Put plainly: Cell viability across the cell line panel. Type of assay: cell-based. The settings on record: for effect on cell viability: all cell lines tested, 18 h incubation. From the text: Error bars show standard error of the mean.
For assay [2], the system named is EGFR CCH-1 juxtamembrane coiled coil. Put plainly: Bipartite tetracysteine display (ReAsH, TIRF) of intra-dimer coiled coil formation. The class given is cell-based. The conditions noted are these: CHO cells; for change of EGF-induced ReAsH fluorescence: EGFR CCH-1, 1 μM ligand 1 hour, 100 ng/mL EGF. Here is the method: FIG. 21 is a graph depicting the results of example experiments conducted to monitor EGFR intra-dimer coiled coil formation using TIRF and bipartite tetracysteine display. CHO cells were transiently transfected with EGFR CCH-1, treated with 1 μM of the indicated ligand for 1 hour, stimulated with 100 ng/mL EGF for 30 minutes, and labeled with ReAsH (Scheck et al., 2012, ACS Chem Biol, 7: 1367). […] Error bars represent standard error of the mean. *p<0.05, **p<0.01, ***p<0.001, ****p<0.0001, one-way ANOVA with Bonferroni post-analysis accounting for multiple comparisons.
Experiments were conducted using CHO cells expressing an EGFR variant (CCH-1) with a cysteine pair within the JM-A whose location supports ReAsH binding and fluorescence upon EGF-induced coiled coil assembly 24. […] CHO cells transiently expressing the EGFR variant CCH-1 on the cell surface were exposed to native and hydrocarbon-stapled peptides, stimulated with EGF, incubated with ReAsH, and the fluorescence increase due to ReAsH quantified using total internal reflectance fluorescence microscopy (TIR-FM). […] Identical results were observed when cells were treated first with EGF and then with the indicated peptides. None of the peptides tested had any effect on the extent of ReAsH fluorescence in the absence of EGF. […] This work validates the juxtamembrane segment as a viable allosteric target for inhibitor design.

A further assay addresses EGFR (Homo sapiens, UniProt P00533). Put plainly: Immunoblot of EGFR phosphorylation in A431 cells. Type of assay: cell-based. The conditions noted are these: 10 μM, Akt and Erk1/2 positions. The method, then:
A431 cells were treated with 10 μM of the ligand shown for 2 hours, stimulated with 10 ng/mL EGF, then lysed, immunoblotted, and visualized. Plots illustrate the increase or decrease in the intensity of the indicated phospho-protein band between treated and untreated cells. Error bars representing standard error of the mean over at least 4 trials.
Activation of EGFR upon growth factor binding leads to a well characterized pattern of Tyr and Ser/Thr phosphorylation events that initiate downstream signaling networks (Olayioye, et al., 2000, EMBO J., 19, 3159). Molecules that block growth factor binding to the extracellular domain, or ATP binding to the intracellular kinase domain, inhibit the phosphorylation of both EGFR and downstream factors such as Erk and Akt (Yarden, et al., 2012, Nat. Rev. Cancer, 12, 553). Immunoblots were used to evaluate whether the effects of JM-A-derived ligands on the viability of EGFR-dependent cell lines correlated with their effects on EGFR phosphorylation and the activation of downstream factors. Specifically, phosphorylation was probed at EGFR tyrosines 845, 1045, 1068, 1086, and 1173, as well as for phospho-Akt (Ser473) and phospho-Erk1/2 (T202/Y204) (FIG. 19).
(In general: Immunoblotting shows a protein as a band on a membrane.)

Take “^BJM-WT: biotinylated analog of JM-WT (VRKRTLRRLLQERELVE; also: biotinylated)”: the “sequestration of full length wild type EGFR from cell lysates” value (from here on “sequestration”) in the assay with wtEGFR is recorded as “did not”.
Consider “^BE1ΔL^S: biotinylated analog of E1ΔL^S (VRKR[R8]ARRAAQ[S5]RELVE; staple 5-12; also: biotinylated, site of biotin not given here)”, for which, in the assay with wtEGFR, the “sequestration” value was “sequestered; also recorded: sequester wtEGFR”.
Take “JM-WT: unmodified EGFR JM-A peptide VRKRTLRRLLQERELVE (SEQ ID NO: 1)”: the “effect on cell viability” value in assay [1] is listed as “none of the cells are sensitive; also recorded: inability to decrease the viability”. Further, the “change of EGF-induced ReAsH fluorescence” value in assay [2] is reported as “unchanged”.
For “E1ΔL^S: hydrocarbon-stapled VRKRZARRAAQXRELVE (SEQ ID NO: 19; E1ΔL), leucines replaced by alanine (VRKR[R8]ARRAAQ[S5]RELVE; staple 5-12)”, the “effect on cell viability” value in assay [1] is listed as “more modest effects on cell viability”. Moreover, the “change of EGF-induced ReAsH fluorescence” value in assay [2] is reported as “significant loss in ReAsH fluorescence”. Further, the “change of EGF-induced ReAsH fluorescence at a lower concentration” value in assay [2] (EGFR CCH-1, lower concentration than 1 μM) is given as “effectively reduced the ReAsH signal”. Further, in the assay with EGFR, the “pattern of phosphorylation changes over all probed positions” value is given as “little or no decrease in phosphorylation at any position”.
As for “TE-64562: polypeptide containing the EGFR juxtamembrane segment fused to HIV Tat (Boran et al., 2012) (YGRKKRRQRRRVRKRTLRRLLQERELVE) [reference compound]”, the “effect on cell viability after 72 h” value in assay [1] (72 h incubation) is listed as “potency is mitigated significantly”. Moreover, the “effect on cell viability” value in assay [1] was “moderate decreases in viability”. Moreover, in the assay with EGFR, the “pattern of phosphorylation changes over all probed positions” value was “paralleled”.
Consider “^BT1^S: biotinylated analog of T1^S (VRKRT[S5]RRL[S5]QERELVE; staple 6-10 (inferred); also: biotinylated)”, for which, in the assay with wtEGFR, the “sequestration” value was “did not”.

The values are drawn from patent publication US9644002B2, “Allosteric modulators of EGFR and constitutively active mutants” (YALE UNIVERSITY, priority 2013, dated 2017).
